In ChEMBL document CHEMBL3774370, “Structure-activity relationships (SAR) and structure-kinetic relationships (SKR) of sulphone-based CRTh2 antagonists” (Eur J Med Chem, 2016):

Assays:
[1] = target: T1, Prostaglandin D2 receptor 2 (Homo sapiens, UniProt Q9Y5Y4); experiment: Displacement of [35S]-GTPgammaS from CRTH2 receptor (unknown origin) expressed in CHOK1 cell membrane after 1 hr by liquid scintillation counter; assay type: cell membranes, CHO-K1
T1 sequence (Q9Y5Y4 whole entry): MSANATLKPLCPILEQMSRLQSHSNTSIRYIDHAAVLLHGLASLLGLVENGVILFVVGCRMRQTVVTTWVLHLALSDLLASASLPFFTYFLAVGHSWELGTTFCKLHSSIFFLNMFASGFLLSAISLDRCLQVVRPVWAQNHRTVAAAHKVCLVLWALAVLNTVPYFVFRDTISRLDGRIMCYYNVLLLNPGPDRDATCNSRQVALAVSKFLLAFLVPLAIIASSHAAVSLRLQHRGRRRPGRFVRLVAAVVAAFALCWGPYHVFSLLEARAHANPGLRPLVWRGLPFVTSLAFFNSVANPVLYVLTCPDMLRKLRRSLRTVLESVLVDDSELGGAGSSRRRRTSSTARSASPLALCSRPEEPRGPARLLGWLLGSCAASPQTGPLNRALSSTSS

[2] = test system: Prostaglandin D2 receptor 2, CRTh2 (Homo sapiens); experiment: Antagonist activity at CRTH2 receptor (unknown origin) expressed in CHOK1 cells assessed as dissociation half life measured up to 25 hrs by GTPgammaS assay; conditions: CHO-K1
[3] = target: T2, Prostaglandin D2 receptor 2 (Homo sapiens) (UniProt Q9Y5Y4); experiment: Displacement of [35S]-GTPgammaS from CRTH2 receptor (unknown origin) expressed in CHOK1 cell membrane at 10 uM after 1 hr by liquid scintillation counter; assay type: cell membranes; conditions: CHO-K1
T2 sequence (whole entry): T1 sequence (Q9Y5Y4 whole entry)

Compound	IC50 [1] [nM]	T1/2 [2] [h]	inhibition [3] [%]
Cc1c(Cc2ccccc2S(=O)(=O)c2ccc(F)cc2)nc(-c2ccccc2)n1CC(=O)O	8	0.6	
COc1ccc(S(=O)(=O)c2ccc(F)cc2)c(Cc2c3c(n(CC(=O)O)c2C)CCCC3=O)c1	2	21	
O=C(O)Cc1cccn(Cc2ccccc2S(=O)(=O)c2ccccc2)c1=O			< 25
O=C(O)CN1c2cccnc2N(Cc2ccccc2S(=O)(=O)c2ccccc2)S1(=O)=O	1600		
COc1ccc(S(=O)(=O)c2ccc(F)cc2)c(Cn2cc(CC(=O)O)c3ccc(C)nc32)c1	18		
Cc1c(-c2ccccc2)n(CC(=O)O)c(=O)n1Cc1ccccc1S(=O)(=O)c1ccc(F)cc1	10000		
Cc1c(Cc2ccccc2S(=O)(=O)c2ccccc2)c2cc(F)ccc2n1CC(=O)O	14	1.3	
Cc1c(CC(=O)O)c2ccncn2c1Cc1ccccc1S(=O)(=O)c1ccccc1	28		
O=C(O)Cc1ccc(=O)n(Cc2ccccc2S(=O)(=O)c2ccccc2)c1	10000		
COc1ccc(S(=O)(=O)c2ccc(F)cc2)c(Cn2c(C)c(CC(=O)O)c3ccc(C)nc32)c1	4	13	
Cc1ccc2c(CC(=O)O)c(C)n(Cc3ccccc3S(=O)(=O)c3ccccc3)c2n1	14	1.3	
COc1ccc(S(=O)(=O)c2ccc(F)cc2)c(Cc2c(C)c(CC(=O)O)c3ccncn23)c1	5		
O=C(O)Cc1cc(Cl)c(=O)n(Cc2ccccc2S(=O)(=O)c2ccccc2)c1	860		
Cc1c(Cc2ccccc2S(=O)(=O)c2ccc(F)cc2)c2c(n1CC(=O)O)CCCC2=O	2	21	
O=C(O)Cc1cc(Cc2ccccc2S(=O)(=O)c2ccccc2)c2nc(C(F)(F)F)ccn12	47	0.05	
Cc1c(Cc2ccccc2S(=O)(=O)c2ccc(F)cc2)c2c(n1CC(=O)O)CCCC2	104		
Cc1c(CC(=O)O)c(-c2ccccc2)nn1Cc1ccccc1S(=O)(=O)c1ccccc1		0.1	

The remaining lines, values ahead:

IC50 [1] [nM]	T1/2 [2] [h]	inhibition [3] [%]	Compound
2400			O=C(O)Cn1c(-c2ccccc2)nn(Cc2ccccc2S(=O)(=O)c2ccccc2)c1=O
		< 25	O=C(O)Cn1nc(-c2ccccc2)cc(Cc2ccccc2S(=O)(=O)c2ccccc2)c1=O
970			Cc1c(Cc2ccccc2S(=O)(=O)c2ccccc2)c(=O)n(-c2ccccc2)n1CC(=O)O
85			Cc1c(Cc2ccccc2S(=O)(=O)c2ccccc2)c(-c2ccccc2)nn1CC(=O)O
3000			O=C(O)Cc1nc(Cc2ccccc2S(=O)(=O)c2ccccc2)n2ccccc12
65	0.04		O=C(O)Cc1nn(Cc2ccccc2S(=O)(=O)c2ccccc2)c(=O)c2ccccc12
		< 25	O=C(O)Cn1nc(Cc2ccccc2S(=O)(=O)c2ccccc2)c2ccccc2c1=O
		< 25	O=C(O)Cn1nc(-c2ccccc2)n(Cc2ccccc2S(=O)(=O)c2ccccc2)c1=O
